Assay results from ChEMBL document CHEMBL4000170 (Eur J Med Chem, 2017).
Active and inactive are the calls of the source. The calls are words filed in the database; no cut-off is given here.

Key:
[1] = biological target: T1, Androgen receptor (Homo sapiens) (UniProt P10275); details: at 10 µM
T1 sequence (whole entry): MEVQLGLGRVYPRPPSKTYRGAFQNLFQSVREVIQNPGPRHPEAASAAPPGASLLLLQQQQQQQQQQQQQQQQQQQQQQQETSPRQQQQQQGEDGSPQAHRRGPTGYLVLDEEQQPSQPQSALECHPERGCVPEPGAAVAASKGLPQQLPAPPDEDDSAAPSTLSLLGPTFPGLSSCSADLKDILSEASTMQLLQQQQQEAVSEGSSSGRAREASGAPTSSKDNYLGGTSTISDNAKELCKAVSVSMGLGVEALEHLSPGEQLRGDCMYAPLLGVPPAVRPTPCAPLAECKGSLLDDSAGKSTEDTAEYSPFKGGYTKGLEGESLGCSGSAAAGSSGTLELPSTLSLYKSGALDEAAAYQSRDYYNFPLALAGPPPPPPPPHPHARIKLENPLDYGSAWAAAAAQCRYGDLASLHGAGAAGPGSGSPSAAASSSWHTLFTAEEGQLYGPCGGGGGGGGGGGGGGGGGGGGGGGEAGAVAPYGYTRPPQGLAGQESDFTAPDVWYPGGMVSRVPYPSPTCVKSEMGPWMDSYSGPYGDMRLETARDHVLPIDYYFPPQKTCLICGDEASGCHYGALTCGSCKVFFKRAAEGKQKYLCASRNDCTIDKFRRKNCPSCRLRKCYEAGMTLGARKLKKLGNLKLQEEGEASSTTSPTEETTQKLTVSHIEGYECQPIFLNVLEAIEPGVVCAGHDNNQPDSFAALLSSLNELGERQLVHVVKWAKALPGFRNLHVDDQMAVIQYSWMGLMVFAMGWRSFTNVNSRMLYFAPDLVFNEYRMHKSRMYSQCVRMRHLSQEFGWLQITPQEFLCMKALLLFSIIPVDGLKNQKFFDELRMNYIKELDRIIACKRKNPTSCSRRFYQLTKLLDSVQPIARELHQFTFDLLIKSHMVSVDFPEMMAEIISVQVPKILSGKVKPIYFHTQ
Description: Antagonist activity at androgen receptor (unknown origin) expressed in COS-7 cells assessed as inhibition of R1881-induced MMTV promoter activity at 10 uM by luciferase reporter gene assay relative to control

DU-145 = assay: Antiproliferative activity against AR negative human DU145 cells after 3 days by MTT assay; assay type: functional, cell-based; details: DU-145, 72 h
[2] = Antiproliferative activity against human LNCaP-hr cells expressing AR T877A mutant after 3 days by MTT assay; assay type: functional, cell-based; details: 72 h
[3] = Displacement of Fluormone-AL green from rat GST/His-tagged AR LBD mutant after 4 hrs by Fluorescence polarization assay
[4] = test system: Androgen receptor (Homo sapiens), P10275 [T878A]; details: at 10 µM
Sequence of Androgen receptor (Homo sapiens), P10275 [T878A] (P10275 whole entry T878A): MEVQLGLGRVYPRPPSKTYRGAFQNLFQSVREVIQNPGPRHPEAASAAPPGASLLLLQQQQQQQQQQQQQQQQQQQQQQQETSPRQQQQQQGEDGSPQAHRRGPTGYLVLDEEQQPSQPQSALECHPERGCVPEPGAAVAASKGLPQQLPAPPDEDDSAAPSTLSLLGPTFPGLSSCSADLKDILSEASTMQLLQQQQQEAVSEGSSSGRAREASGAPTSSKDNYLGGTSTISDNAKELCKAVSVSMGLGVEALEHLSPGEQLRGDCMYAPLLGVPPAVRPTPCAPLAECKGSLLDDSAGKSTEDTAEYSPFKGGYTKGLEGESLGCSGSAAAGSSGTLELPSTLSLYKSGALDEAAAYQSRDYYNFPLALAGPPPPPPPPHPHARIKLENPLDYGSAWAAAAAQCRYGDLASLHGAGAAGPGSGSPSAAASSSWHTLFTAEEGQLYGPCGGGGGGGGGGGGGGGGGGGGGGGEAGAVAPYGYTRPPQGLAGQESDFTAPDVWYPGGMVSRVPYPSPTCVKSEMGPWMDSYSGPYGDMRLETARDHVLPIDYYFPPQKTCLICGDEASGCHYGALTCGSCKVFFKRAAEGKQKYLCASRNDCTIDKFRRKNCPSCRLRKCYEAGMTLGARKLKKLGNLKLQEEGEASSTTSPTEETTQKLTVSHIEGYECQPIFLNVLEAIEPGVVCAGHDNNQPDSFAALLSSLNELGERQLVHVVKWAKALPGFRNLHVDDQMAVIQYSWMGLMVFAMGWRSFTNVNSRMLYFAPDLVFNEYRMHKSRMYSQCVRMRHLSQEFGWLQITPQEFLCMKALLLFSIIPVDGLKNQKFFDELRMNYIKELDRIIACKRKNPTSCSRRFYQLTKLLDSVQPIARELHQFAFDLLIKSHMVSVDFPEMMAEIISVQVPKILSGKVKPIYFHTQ
Description: Inhibition of R1881-induced AR T877A mutant nuclear translocation in human LNCAP cells assessed as reduction in ratio of nuclear to cytoplasmic AR levels at 10 uM after 12 hrs by DAPI-staining based fluorescent microscopy

## N#Cc1ccc(N2C(=O)C3Cc4ccc(C(=O)NC5CCCCC5)cc4N3C2=S)cc1C(F)(F)F (configuration not stated)
[1]
  inhibition: 22.9%
DU-145
  IC50: 101 µM
[2]
  IC50: 29.3 µM

## CNC(=O)c1cc2c(cc1F)N1C(=S)N(c3ccc(C#N)c(C(F)(F)F)c3)C(=O)C1C2 (configuration not stated)
[1]
  inhibition: inactive
DU-145
  IC50: > 200 µM
[2]
  IC50: 58.2 µM

## N#Cc1ccc(N2C(=O)C3Cc4ccc(N)cc4N3C2=S)cc1C(F)(F)F (configuration not stated)
[1]
  inhibition: 29%
DU-145
  IC50: 67 µM
[2]
  IC50: 32.6 µM

## N#Cc1ccc(N2C(=O)c3cc4ccccc4n3C2=S)cc1C(F)(F)F
[1]
  inhibition: 21.1%
DU-145
  IC50: 146 µM
[2]
  IC50: 33.4 µM

## N#Cc1ccc(N2C(=O)C3CC(O)CN3C2=S)cc1C(F)(F)F (configuration not stated)
[1]
  inhibition: 1.9%
DU-145
  IC50: > 200 µM
[2]
  IC50: 52.6 µM

## N#Cc1ccc(N2C(=O)C3Cc4cc(Cl)ccc4N3C2=S)cc1C(F)(F)F (configuration not stated)
[1]
  inhibition: 6.7%
DU-145
  IC50: 160 µM
[2]
  IC50: 46 µM

## N#Cc1ccc(N2C(=O)C3Cc4ccc(Cl)cc4N3C2=S)cc1C(F)(F)F (configuration not stated)
[3]
  IC50: 2.33 µM
[4]
  inhibition: Active
[1]
  inhibition: 71.9%
DU-145
  IC50: > 200 µM
[2]
  IC50: 27.9 µM

## C[C@]1(O)CC[C@H]2[C@@H]3CCC4=CC(=O)CCC4=C3C=C[C@@]21C
[1]
  inhibition: inactive

## CCNC(=O)c1cc2c(cc1F)N1C(=S)N(c3ccc(C#N)c(C(F)(F)F)c3)C(=O)C1C2 (configuration not stated)
[1]
  inhibition: inactive
DU-145
  IC50: 115 µM
[2]
  IC50: 54.1 µM

## N#Cc1ccc(N2C(=O)C3Cc4ccc(I)cc4N3C2=S)cc1C(F)(F)F (configuration not stated)
[1]
  inhibition: 58.4%
DU-145
  IC50: 190 µM
[2]
  IC50: 71.9 µM

## N#Cc1ccc(N2C(=O)C3Cc4cc(C(=O)NC5CCCCC5)c(F)cc4N3C2=S)cc1C(F)(F)F (configuration not stated)
[1]
  inhibition: 55.1%
DU-145
  IC50: 126 µM
[2]
  IC50: 44.9 µM

## CCCCNC(=O)c1cc2c(cc1F)N1C(=S)N(c3ccc(C#N)c(C(F)(F)F)c3)C(=O)C1C2 (configuration not stated)
[1]
  inhibition: inactive
DU-145
  IC50: 175 µM
[2]
  IC50: 67.3 µM

## CC(C)CNC(=O)c1cc2c(cc1F)N1C(=S)N(c3ccc(C#N)c(C(F)(F)F)c3)C(=O)C1C2 (configuration not stated)
[1]
  inhibition: inactive
DU-145
  IC50: > 200 µM
[2]
  IC50: 70.7 µM

## N#Cc1ccc(N2C(=O)C3Cc4ccccc4N3C2=S)cc1C(F)(F)F (configuration not stated)
DU-145
  IC50: 143 µM
[2]
  IC50: 15.3 µM

## CNC(=O)c1ccc2c(c1)N1C(=S)N(c3ccc(C#N)c(C(F)(F)F)c3)C(=O)C1C2 (configuration not stated)
[1]
  inhibition: 13.1%
DU-145
  IC50: > 200 µM
[2]
  IC50: 144 µM

## CCCNC(=O)c1cc2c(cc1F)N1C(=S)N(c3ccc(C#N)c(C(F)(F)F)c3)C(=O)C1C2 (configuration not stated)
[1]
  inhibition: inactive
DU-145
  IC50: > 200 µM
[2]
  IC50: 11.2 µM

## N#Cc1ccc(N2C(=O)C3Cc4ccc([N+](=O)[O-])cc4N3C2=S)cc1C(F)(F)F (configuration not stated)
[3]
  IC50: 4.49 µM
[1]
  inhibition: 58.2%
DU-145
  IC50: > 200 µM
[2]
  IC50: 26.9 µM

## N#Cc1ccc(N2C(=O)C3Cc4cc(Br)ccc4N3C2=S)cc1C(F)(F)F (configuration not stated)
[1]
  inhibition: 57.1%
DU-145
  IC50: > 200 µM
[2]
  IC50: 83.7 µM

## CNC(=O)c1ccc(N2C(=S)N(c3ccc(C#N)c(C(F)(F)F)c3)C(=O)C2(C)C)cc1F [ENZALUTAMIDE]
[3]
  IC50: 1.35 µM
[2]
  IC50: 12.5 µM

## N#Cc1ccc(N2C(=O)C3Cc4ccc(C(=O)NCCO)cc4N3C2=S)cc1C(F)(F)F (configuration not stated)
[1]
  inhibition: 37%
DU-145
  IC50: 175 µM
[2]
  IC50: 25.8 µM

## CCNC(=O)c1ccc2c(c1)N1C(=S)N(c3ccc(C#N)c(C(F)(F)F)c3)C(=O)C1C2 (configuration not stated)
[1]
  inhibition: 2.1%
DU-145
  IC50: 105 µM
[2]
  IC50: 35.3 µM

## N#Cc1ccc(N2C(=O)C3CCCN3C2=S)cc1C(F)(F)F (configuration not stated)
[1]
  inhibition: 32%
DU-145
  IC50: > 200 µM
[2]
  IC50: 87.7 µM

## N#Cc1ccc(N2C(=O)C3Cc4cc(N)ccc4N3C2=S)cc1C(F)(F)F (configuration not stated)
[1]
  inhibition: 23.4%
DU-145
  IC50: > 200 µM
[2]
  IC50: 99.1 µM

## N#Cc1ccc(N2C(=O)C3CC4CCCCC4N3C2=S)cc1C(F)(F)F (configuration not stated)
[1]
  inhibition: 50.5%
DU-145
  IC50: 128 µM
[2]
  IC50: 36.2 µM

## N#Cc1ccc(N2C(=O)C3Cc4cc([N+](=O)[O-])ccc4N3C2=S)cc1C(F)(F)F (configuration not stated)
[1]
  inhibition: 21.8%
DU-145
  IC50: 78.4 µM
[2]
  IC50: 64.7 µM

## CCCNC(=O)c1ccc2c(c1)N1C(=S)N(c3ccc(C#N)c(C(F)(F)F)c3)C(=O)C1C2 (configuration not stated)
[1]
  inhibition: inactive
DU-145
  IC50: 114 µM
[2]
  IC50: 90.8 µM

## CC(O)CNC(=O)c1ccc2c(c1)N1C(=S)N(c3ccc(C#N)c(C(F)(F)F)c3)C(=O)C1C2 (configuration not stated)
[1]
  inhibition: 39.3%
DU-145
  IC50: > 200 µM
[2]
  IC50: 48.4 µM

## N#Cc1ccc(N2C(=O)C3Cc4ccc(Br)cc4N3C2=S)cc1C(F)(F)F (configuration not stated)
[3]
  IC50: 2.98 µM
[1]
  inhibition: 68.3%
DU-145
  IC50: > 200 µM
[2]
  IC50: 30.4 µM

## CCCCNC(=O)c1ccc2c(c1)N1C(=S)N(c3ccc(C#N)c(C(F)(F)F)c3)C(=O)C1C2 (configuration not stated)
[1]
  inhibition: inactive
DU-145
  IC50: 58 µM
[2]
  IC50: 77.2 µM
